Data as given in patent US8586620B2, “Substituted indole compounds having NOS inhibitory activity” (NeurAxon, Inc., priority 2005, dated 2013).
Counter-ions that a name gives are not always drawn. Like-named read-outs stand apart in the source and are kept apart here. One block for each compound: values may come before it.

Columns and labels:
5-HT1B = 5-HT1B (Rattus norvegicus (Rat), UniProt P28564); assay: 5-HT1B binding assay (agonist radioligand), rat cerebral cortex
Procedure: 5-HT1D binding assays (agonist radioligand)were performed using bovine caudate membranes according to the methods of Heuring and Peroutka (J. Neurosci 1987, 7: 894-903). 5-HT1B (rat cerebral cortex) binding assays (agonist radioligand) were performed according to the method of Hoyer et. al. (Eur. J. Pharmacol. 1995, 118: 1-12). For the purpose of result analysis, the specific ligand binding to the receptors is defined as the difference between the total binding and the nonspecific binding as determined in the presence of an excess of unlabelled ligand. The results are expressed as a percent of control specific binding obtained in the presence of the test compounds. IC50 values (concentration causing a half-maximal inhibition of control specific binding) and Hill coefficients (nH) were determined by non-linear regression analysis of the competition curves using Hill equation curve fitting and the inhibition constants (Ki) were calculated from the Cheng Prusoff equation (Ki=IC50/(1+(L/KD)), where L=concentration of radioligand in the assay, and KD=affinity of the radioligand for the receptor).

[1] = target: human endothelial constitutive NOS (eNOS) (Homo sapiens (Human), UniProt P29474); assay: Human eNOS enzyme assay, radiometric;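 note: recombinant human eNOS expressed in baculovirus-infected Sf9 cells, activity read as [3H]L-arginine turned into [3H]L-citrulline, the product isolated on ion-exchange resin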
[2] = target: human neuronal constitutive NOS (nNOS) (Homo sapiens (Human), UniProt P29475); assay: Human nNOS enzyme assay, radiometric [3H]L-arginine to [3H]L-citrulline;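 note: recombinant human nNOS expressed in baculovirus-infected Sf9 cells, enzyme activity measured radiometrically as turnover of [3H]L-arginine into [3H]L-citrulline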
hindpaw allodynia = assay: Experimental migraine model, inflammatory soup on dura, hindpaw allodynia
[3] = target: human inducible NOS (iNOS) (Homo sapiens (Human), UniProt P35228); assay: Human iNOS enzyme assay, radiometric; assay type: biochemical
From the text: Standard deviations were 10% or less.

[4] = tested on: L5/L6 spinal nerve ligation; assay: Chung spinal nerve ligation (SNL) model of neuropathic pain; assay type: in vivo; details: rats; for tactile hyperthesia: L5/L6 spinal nerve ligation, FIGS. 20 and 22; for thermal hyperalgesia: one standard dose (10 mg/kg) injected IP, FIG. 19, 21
Procedure: (a) Chung Model of Injury-induced Neuropathic-like Pain: The experimental designs for the Chung Spinal Nerve Ligation SNL Model assay for neuropathic pain are depicted in FIG. 18. Nerve ligation injury was performed according to the method described by Kim and Chung (Kim and Chung, Pain 50:355-363, 1992). This technique produces signs of neuropathic dysesthesias, including tactile allodynia, thermal hyperalgesia, and guarding of the affected paw. Rats were anesthetized with halothane and the vertebrae over the L4 to S2 region were exposed. The L5 and L6 spinal nerves were exposed, carefully isolated, and tightly ligated with 4-0 silk suture distal to the DRG. After ensuring homeostatic stability, the wounds were sutured, and the animals allowed to recover in individual cages. Sham-operated rats were prepared in an identical fashion except that the L5/L6 spinal nerves were not ligated. […] After a period of recovery following the surgical intervention, rats show enhanced sensitivity to painful and normally non-painful stimuli.

Rat nNOS = Rat nNOS (Rattus norvegicus (Rat), UniProt P29476); assay: Rat nNOS hemoglobin capture assay; assay type: biochemical; details: Table 2a
From the text: (§1) The NOS isoforms used in this example were recombinant enzymes expressed in E. coli. Rat nNOS was expressed and purified as described previously (Roman et al., Proc. Natl. Acad. Sci. USA 92:8428-8432, 1995). The bovine eNOS isoform was isolated as reported (Martasek et al., Biochem. Biophys. Res. Commun. 219:259-365, 1996) and murine macrophage iNOS was expressed and isolated according to the procedure of Hevel et al. (J. Biol. Chem. 266:22789-22791, 1991). IC50 values and percent inhibition of NOS by the compounds of the invention were determined under initial velocity measurement conditions with the hemoglobin capture assay as previously described (Hevel and Marletta, Methods Enzymol. 133:250-258, 1994). In this assay, nitric oxide reacts with oxyhemoglobin to yield methemoglobin, which was detected at 401 nm (e=19,700 M^−1 cm^−1) on a Perkin-Elmer Lamda 10 UV/vis spectrophotometer. The assays were performed using varying test compound concentrations. Assay mixtures for nNOS or eNOS contained […], 1.6 mM CaCl2, 11.6 mg/mL calmodulin, […], 6.5 mM BH4 and […] in 100 mM Hepes (pH 7.5). Assay mixtures for iNOS contained 10 mM of L-arginine, […], 6.5 mM BH4 and […] in 100 mM Hepes (pH 7.5). All assays were conducted in a final volume of 600 μL and were initiated with enzyme.

bovine eNOS = bovine eNOS (Bos taurus (Bovine), UniProt P29473); assay: Bovine eNOS hemoglobin capture assay; assay type: biochemical
From the text: as §1

cardiogenic shock = details: randomized trial of 30 patients; reduced from 67%; cited from earlier work
murine macrophage iNOS = murine macrophage iNOS (Mus musculus (Mouse), UniProt P29477); assay: Murine iNOS hemoglobin capture assay; assay type: biochemical
From the text: as §1

migraine = details: single i.v. administration; human migraine; cited from earlier work
persistent shock = details: up to 30 days; 11 patients with persistent shock; cited from earlier work
migraine attack = details: open pilot study; cited from earlier work
[5] = tested on: rat cortical neuronal cultures; assay: Neuroprotection of rat cortical cells against NMDA challenge; assay type: cell-based; details: 60-minute pre-incubation; 30 minutes 25 μM NMDA; propidium iodide after 24 hrs; FIG. 1
Procedure: According to a previously reported procedure (Tremblay et al., J Neurosci. 20(19):7183-92, 2000), test compounds were added for a 60-minute pre-incubation period to rat cortical neuronal cultures, which were then exposed for 30 minutes to 25 μM NMDA in buffer. After 24 hrs cultures were treated with propidium iodide and the % cell death determined and compared to control cells.

[6] = read-out: eNOSh, Table I, human NOS, dihydrochloride or monohydrochloride salts
[7] = read-out: nNOSh, Table I, human NOS, dihydrochloride or monohydrochloride salts
[8] = 6 mg/kg i.v. 10 minutes prior to IS
[9] = Table I, human NOS, dihydrochloride or monohydrochloride salts, read-out: iNOSh
[10] = Table 2a, hemoglobin capture assay, read-out: Bovine eNOS
[11] = Table 2a, hemoglobin capture assay, read-out: Murine iNOS

Sequence of 5-HT1B (P28564 whole entry): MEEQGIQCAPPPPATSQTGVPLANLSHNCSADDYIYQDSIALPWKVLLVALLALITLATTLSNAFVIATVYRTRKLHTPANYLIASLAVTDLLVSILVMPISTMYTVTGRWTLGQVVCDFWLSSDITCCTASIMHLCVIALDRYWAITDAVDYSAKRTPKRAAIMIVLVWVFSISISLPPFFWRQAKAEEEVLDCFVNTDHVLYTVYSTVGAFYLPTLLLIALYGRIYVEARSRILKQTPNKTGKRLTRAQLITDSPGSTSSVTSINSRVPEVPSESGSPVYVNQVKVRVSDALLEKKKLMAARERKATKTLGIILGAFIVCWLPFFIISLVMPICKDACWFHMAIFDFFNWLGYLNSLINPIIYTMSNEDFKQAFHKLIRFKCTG

SMILES: CN1CCC[C@@H]1Cc1c[nH]c2ccc(NC(=N)c3cccs3)cc12 [Compound 97, (R)-N-(3-((1-Methylpyrrolidin-2-yl)methyl)-1H-indol-5-yl)thiophene-2-carboximidamide]
- IC50 (5-HT1B): 0.31 µM
- IC50 [1, 6]: 34.5 µM
- e/n ([2]; Table I, ratio eNOSh/nNOSh): 41
- IC50 [2, 7]: 0.84 µM
- development of hindpaw allodynia (hindpaw allodynia; [8]): prevents the development of hindpaw allodynia

SMILES: CN1CC=C(c2c[nH]c3ccc(NC(=N)c4cccs4)cc23)CC1 [Compound 42, N-(3-(1-methyl-1,2,3,6-tetrahydropyridin-4-yl)-1H-indol-5-yl)thiophene-2-carboximidamide]
- IC50 [3, 9]: 20 µM
- IC50 (5-HT1B): 0.16 µM
- IC50 [1, 6]: 51.1 µM
- e/n [2]: 53
- IC50 [2, 7]: 0.92 µM
- development of hindpaw allodynia (hindpaw allodynia; [8]): prevents the development of hindpaw allodynia

- melting point: 212 °C
SMILES: CN1CCC[C@H]1CCc1c[nH]c2ccc(NC(=N)c3cccs3)cc12 (as salt: hydrochloride) [Compound 147, (R)-N-(3-(2-(1-Methylpyrrolidin-2-yl)ethyl)-1H-indol-5-yl)thiophene-2-carboximidamide]

SMILES: CN1CCC[C@H]1Cc1c[nH]c2ccc(NC(=N)c3cccs3)cc12 [Compound 105, (S)-N-(3-((1-methylpyrrolidin-2-yl)methyl)-1H-indol-5-yl)thiophene-2-carboximidamide]
- IC50 (5-HT1B): 0.29 µM
- IC50 [1, 6]: 23 µM
- e/n ([2]; Table I, ratio eNOSh/nNOSh): 29
- IC50 [2, 7]: 0.82 µM

- IC50 (5-HT1B): 1.1 µM
- IC50 [1, 6]: 33.8 µM
- IC50 [2, 7]: 1.24 µM
SMILES: CN1CCC(c2c[nH]c3ccc(NC(=N)c4ccco4)cc23)C1 (stereo not drawn) [Compound 111, N-(3-(1-methylpyrrolidin-3-yl)-1H-indol-5-yl)furan-2-carboximidamide]

- IC50 ([3]; Table 2b, read-out: Human iNOS): 72.6 µM
- IC50 ([1]; read-out: Human eNOS, Table 2b): 24 µM
- IC50 ([2]; read-out: Human nNOS, Table 2b): 0.2 µM
SMILES: CN1CCCC1CCn1ccc2ccc(NC(=N)c3cccs3)cc21 (stereo not drawn) [32(−)]
- tactile hyperthesia [4]: reversal of tactile hyperthesia
- thermal hyperalgesia [4]: clear antihyperalgesic effect

- IC50 (Rat nNOS): 57.6 µM
- IC50 (bovine eNOS; [10]): 643 µM
SMILES: N=C(Nc1ccc2[nH]ccc2c1)c1cccs1 [Compound 5]

SMILES: COC(=O)[C@@H](N)CCCNC(=N)N[N+](=O)[O-] [L-NAME]
- patient mortality (cardiogenic shock): 27%

SMILES: N=C(Nc1ccc2ccn(CCc3ccccc3)c2c1)c1cccs1 [Compound 27]
- IC50 ([3]; Table 2b, read-out: Human iNOS): 320 µM
- IC50 (Rat nNOS): 14.6 µM
- IC50 (murine macrophage iNOS; [11]): 159 µM
- IC50 (bovine eNOS; [10]): > 300 µM
- IC50 ([1]; read-out: Human eNOS, Table 2b): > 100 µM
- IC50 ([2]; read-out: Human nNOS, Table 2b): 12 µM

- IC50 ([3]; Table 2b, read-out: Human iNOS): 72.8 µM
- IC50 ([1]; read-out: Human eNOS, Table 2b): 16 µM
- IC50 ([2]; read-out: Human nNOS, Table 2b): 0.32 µM
SMILES: CN1CCCC1CCn1ccc2ccc(NC(=N)c3cccs3)cc21 (stereo not drawn) [32(+)]
- tactile hyperthesia [4]: reversal of tactile hyperthesia
- thermal hyperalgesia [4]: clear antihyperalgesic effect

- IC50 (Rat nNOS): 4.1 µM
- IC50 (murine macrophage iNOS; [11]): 67.2 µM
- IC50 (bovine eNOS; [10]): 6.2 µM
SMILES: CN1CCCC1CCn1ccc2ccc(NC(=N)c3cccs3)cc21 (stereo not drawn) [Compound 32]

- IC50 (5-HT1B): 0.49 µM
- IC50 [1, 6]: 39 µM
- e/n ([2]; Table I, ratio eNOSh/nNOSh): 90
- IC50 [2, 7]: 0.43 µM
SMILES: CN1CCC(c2c[nH]c3ccc(NC(=N)c4cccs4)cc23)C1 (stereo not drawn) [Compound 110, N-(3-(1-methylpyrrolidin-3-yl)-1H-indol-5-yl)thiophene-2-carboximidamide]

SMILES: CN=C(N)NCCC[C@H](N)C(=O)O.Cl [L-NMMA, L-N^G methylarginine hydrochloride]
- response rate (migraine): 67%
- survival rate (persistent shock): 72%
- development of hindpaw allodynia (hindpaw allodynia; 10 mg/kg i.v 10 minutes prior to IS): prevents the development of hindpaw allodynia

SMILES: C/C1=C2/[N-][C@H]([C@H](CC(N)=O)[C@@]2(C)CCC(=O)NC[C@@H](C)OP(=O)([O-])O[C@H]2[C@@H](O)[C@@H](n3cnc4cc(C)c(C)cc43)O[C@@H]2CO)[C@]2(C)N=C(/C(C)=C3N=C(/C=C4N=C1[C@@H](CCC(N)=O)C\4(C)C)[C@@H](CCC(N)=O)[C@]\3(C)CC(N)=O)[C@@H](CCC(N)=O)[C@]2(C)CC(N)=O.[Co+3].[OH-] [hydroxycobalamin]
- patients with reduction in the frequency of migraine attack of 50% (migraine attack): 53%

- melting point: 150 to 152 °C
SMILES: CCN1CCC(c2c[nH]c3ccc(NC(=N)c4cccs4)cc23)CC1 [Compound 61, N-(3-(1-ethylpiperidin-4-yl)-1H-indol-5-yl)thiophene-2-carboximidamide]

SMILES: CCSC(=N)Nc1ccc2[nH]ccc2c1 [Compound 4]
- IC50 (Rat nNOS): 29.6 µM
- IC50 (murine macrophage iNOS; [11]): 46.9 µM
- IC50 (bovine eNOS; [10]): 164 µM

SMILES: CNS(=O)(=O)Cc1ccc2[nH]cc(CCN(C)C)c2c1 [Sumatriptan, reference compound]
- development of hindpaw allodynia (hindpaw allodynia; 1 mg/kg s.c. 5 minutes prior to soup, two hours after IS): prevention of the development of hindpaw allodynia

SMILES: CN(C)CCc1c[nH]c2ccc(NC(=N)c3cccs3)cc12 [Compound 18]
- IC50 ([3]; Table 2b, read-out: Human iNOS): 12 µM
- IC50 [3, 9]: 12 µM
- IC50 (Rat nNOS): 3.3 µM
- IC50 (murine macrophage iNOS): 43.5 µM
- IC50 (bovine eNOS): 248 µM
- protection of neuronal cells from death upon NMDA challenge [5]: protected neuronal cells from death
- IC50 ([1]; read-out: Human eNOS, Table 2b): 26 µM
- IC50 [1, 6]: 26 µM
- e/n ([2]; Table I, ratio eNOSh/nNOSh): 10
- IC50 ([2]; read-out: Human nNOS, Table 2b): 2.6 µM
- IC50 [2, 7]: 2.6 µM

- IC50 [3, 9]: 9.9 µM
- IC50 [1, 6]: 31 µM
- e/n ([2]; Table I, ratio eNOSh/nNOSh): 9.9
- IC50 [2, 7]: 2 µM
SMILES: N=C(Nc1ccc2[nH]cc(CCCN3CCOCC3)c2c1)c1cccs1 [Compound 181, N-(3-(3-morpholinopropyl)-1H-indol-5-yl)thiophene-2-carboximidamide]
